By inhibition is commonly meant how much of the control response was suppressed. In general, MIC50 refers to the lowest concentration that inhibits either 50% of growth or 50% of the strains tested, depending on the study.

14 compounds from ChEMBL document CHEMBL4823287, “Design and synthesis of novel 5-alkynyl pyrimidine nucleosides derivatives: Influence of C-6-substituent on antituberculosis activity” (2021) can be followed below.

Values after ≈ are worked out from the molar mass of the structure shown.

What all share (type): functional
In assay [1] the test system is Mycobacterium tuberculosis. Briefly: Antimycobacterial activity against Mycobacterium tuberculosis H37Ra assessed as inhibition of bacterial growth at 10 ug/ml measured by microplate alamar blue assay. In general terms: Alamar Blue is a resazurin reagent that responds to reducing activity.
The test system of assay [2] is Mycobacterium tuberculosis. Briefly: Antimycobacterial activity against Mycobacterium tuberculosis H37Ra assessed as inhibition of bacterial growth measured by microplate alamar blue assay.
The subject of assay [3] is Mycobacterium tuberculosis. The assay is described as follows: Antimycobacterial activity against Mycobacterium tuberculosis H37Ra assessed as inhibition of bacterial growth at 100 ug/ml measured by microplate alamar blue assay.
Assay [4] has as its system Mycobacterium tuberculosis. Briefly: Antimycobacterial activity against Mycobacterium tuberculosis H37Ra assessed as inhibition of bacterial growth at 50 ug/ml measured by microplate alamar blue assay.
The test system of assay [5] is Mycobacterium tuberculosis. The assay is described as follows: Antimycobacterial activity against Mycobacterium tuberculosis H37Ra assessed as inhibition of bacterial growth at 1 to 5 ug/ml measured by microplate alamar blue assay. The conditions noted are these: dose 1-5 µg/ml; at 1 to 5 µg/mL.
For assay [6], the system named is Mycobacterium tuberculosis. Briefly: Antimycobacterial activity against Mycobacterium tuberculosis H37Ra assessed as inhibition of bacterial growth at 1 ug/ml measured by microplate alamar blue assay.
Assay [7] has as its system Mycobacterium tuberculosis. Briefly: Antimycobacterial activity against Mycobacterium tuberculosis H37Ra assessed as inhibition of bacterial growth at 25 ug/ml measured by microplate alamar blue assay.
The test system of assay [8] is Mycobacterium tuberculosis. The assay is described as follows: Antimycobacterial activity against Mycobacterium tuberculosis H37Ra assessed as inhibition of bacterial growth at 5 ug/ml measured by microplate alamar blue assay.

For `Cc1c(C#Cc2ccccc2)c(=O)[nH]c(=O)n1[C@@H]1O[C@H](CO)[C@@H](O)[C@H]1O`, the inhibition at 10 µg/mL in assay [1] amounted to 75%. Besides, the MIC50 in assay [2] amounted to 2.6 mg/L (≈ 7.26 µM). Further, in assay [3], the inhibition at 100 µg/mL is 90%. Besides, the inhibition at 50 µg/mL in assay [4] amounted to 75%. Also, in assay [5], the “inhibition (percent inhibition of bacterial growth)” value is 50%.
For `CCCC#Cc1c(C)n([C@@H]2O[C@H](CO)[C@@H](O)[C@H]2O)c(=O)[nH]c1=O`, the inhibition at 10 µg/mL in assay [1] is 0%. The MIC50 in assay [2] was < 50 mg/L. Also, the inhibition at 100 µg/mL in assay [3] was found to be 90%. Further, the inhibition at 50 µg/mL in assay [4] is 60%.
As to `Cc1c(C#CC(O)c2ccccc2)c(=O)[nH]c(=O)n1[C@@H]1O[C@H](CO)[C@@H](O)[C@H]1O` (stereo partly specified), the MIC50 in assay [2] turned out to be 0.6 mg/L (≈ 1.54 µM). For the same compound, the inhibition at 1 µg/mL in assay [6] was found to be 100%.
Consider `Cc1c(C#CC2CC2)c(=O)[nH]c(=O)n1[C@@H]1O[C@H](CO)[C@@H](O)[C@H]1O`, for which the inhibition at 10 µg/mL in assay [1] worked out at 80%. The MIC50 in assay [2] is 2.3 mg/L (≈ 7.14 µM). The inhibition at 100 µg/mL in assay [3] was 90%. Also, the “inhibition (percent inhibition of bacterial growth)” value in assay [5] is listed as 50%.
Turning to `CCCCCCC#Cc1c(C)n([C@@H]2O[C@H](CO)[C@@H](O)[C@H]2O)c(=O)[nH]c1=O`, in assay [2], the MIC50 is < 50 mg/L. In assay [3], the inhibition at 100 µg/mL amounted to 90%. The inhibition at 50 µg/mL in assay [4] turned out to be 70%.
For the compound `CCCCC#Cc1c(C)n([C@@H]2O[C@H](CO)[C@@H](O)[C@H]2O)c(=O)[nH]c1=O`, the MIC50 in assay [2] is 17.7 mg/L (≈ 52.3 µM). In assay [7], the inhibition at 25 µg/mL is 60%. In assay [4], the inhibition at 50 µg/mL turned out to be 100%. Besides, the “inhibition (percent inhibition of bacterial growth)” value in assay [5] worked out at 10%.
For `Cc1c(C#CC2CCCCC2)c(=O)[nH]c(=O)n1[C@@H]1O[C@H](CO)[C@@H](O)[C@H]1O`, the MIC50 in assay [2] amounted to 14.1 mg/L (≈ 38.7 µM). Also, the inhibition at 25 µg/mL in assay [7] was found to be 60%. Also, the inhibition at 50 µg/mL in assay [4] worked out at 100%. In assay [5], the “inhibition (percent inhibition of bacterial growth)” value is reported as 10%.
For `Cc1c(C#C[Si](C)(C)C)c(=O)[nH]c(=O)n1[C@@H]1O[C@H](CO)[C@@H](O)[C@H]1O`, in assay [3], the inhibition at 100 µg/mL was found to be 0%.
On to `N[C@@H]1CONC1=O` [CYCLOSERINE], for which the inhibition at 10 µg/mL in assay [1] worked out at 67%. Also, the MIC50 in assay [2] was 5.2 mg/L (≈ 50.9 µM). For the same compound, the inhibition at 5 µg/mL in assay [8] was 50%.
Regarding `CC#Cc1c(C)n([C@@H]2O[C@H](CO)[C@@H](O)[C@H]2O)c(=O)[nH]c1=O`, the inhibition at 10 µg/mL in assay [1] was 10%. For the same compound, the MIC50 in assay [2] was found to be 50 mg/L (≈ 169 µM). In assay [3], the inhibition at 100 µg/mL is 90%. Besides, in assay [4], the inhibition at 50 µg/mL was 50%.
As to `NNC(=O)c1ccncc1` [ISONIAZID], the MIC50 in assay [2] came out at 0.8 mg/L (≈ 5.83 µM). In assay [6], the inhibition at 1 µg/mL was 100%.
Consider `CCC#Cc1c(C)n([C@@H]2O[C@H](CO)[C@@H](O)[C@H]2O)c(=O)[nH]c1=O`, for which the inhibition at 10 µg/mL in assay [1] was 10%. For the same compound, the MIC50 in assay [2] stood at 50 mg/L (≈ 161 µM). Further, the inhibition at 100 µg/mL in assay [3] came out at 90%. Moreover, the inhibition at 50 µg/mL in assay [4] was 50%.
For the compound `CO[C@H]1/C=C/O[C@@]2(C)Oc3c(C)c(O)c4c(O)c(c(/C=N/N5CCN(C)CC5)c(O)c4c3C2=O)NC(=O)/C(C)=C\C=C\[C@H](C)[C@H](O)[C@@H](C)[C@@H](O)[C@@H](C)[C@H](OC(C)=O)[C@@H]1C` [RIFAMPIN], the MIC50 in assay [2] came to 0.7 mg/L (≈ 0.851 µM). For the same compound, the inhibition at 1 µg/mL in assay [6] worked out at 100%.
Take `Cc1c(C#CCC(C)C)c(=O)[nH]c(=O)n1[C@@H]1O[C@H](CO)[C@@H](O)[C@H]1O`: the MIC50 in assay [2] came to 18.1 mg/L (≈ 53.5 µM). For the same compound, in assay [7], the inhibition at 25 µg/mL was determined as 60%. In addition, the inhibition at 50 µg/mL in assay [4] amounted to 100%. Further, in assay [5], the “inhibition (percent inhibition of bacterial growth)” value is 10%.
